Where two headings read alike, the source gives them in different places.
Assays:
[1] = test system: patients with previously treated metastatic breast cancer; assay: Efficacy of two dosing schedules in patients with previously treated metastatic breast cancer (RECIST response, PFS, OS); assay type: in vivo, human
Method: Seventy patients were enrolled in the trial (n=35 per arm). […] Patients received treatment until disease progression or unacceptable toxicity. The drug dosage was dose-reduced by 25 mg/m^2 for grade 3-4 hematologic toxicity, grade 3-4 diarrhea, and other grade 2-4 non-hematologic toxicities (other than alopecia, anorexia, asthenia, and untreated nausea/vomiting). […] Medical history was taken at screening and on day 1 of each cycle. […] Coagulation parameters were analyzed at screening and on day 1 of each cycle. […] Patients were contacted approximately every 3 months after the end-of-treatment visit to assess progression (in the absence of progression on study), survival, receipt of subsequent anti-cancer therapy, and resolution of toxicity. […] Exploratory endpoints included change from baseline in CA27.29, UGT1A1 and ABCC2 polymorphism for correlation with select toxicities. Three populations for analysis were defined: 1) intent-to-treat (ITT), 2) efficacy evaluable, and 3) safety. The ITT population was the primary population for all efficacy analyses and included all randomized patients. […] The safety population consisted of all patients who received at least one dose or partial dose of chemotherapeutic agent. Summary statistics were used for continuous variables, frequency counts and percentages were used for categorical variables. Ninety-five percent confidence interval were calculated for ORR using the Exact method. Time-to-event variables were analyzed using the Kaplan-Meier method.

serum CA27.29 = test system: serum CA27.29
Method: Medical history was taken at screening and on day 1 of each cycle. Physical exam was performed and serum CA27.29, complete blood count with differential, and serum chemistry were analyzed at screening, on day 1 of each cycle, and at end of treatment. Coagulation parameters were analyzed at screening and on day 1 of each cycle. […] Patients were contacted approximately every 3 months after the end-of-treatment visit to assess progression (in the absence of progression on study), survival, receipt of subsequent anti-cancer therapy, and resolution of toxicity.
Secondary endpoints were PFS, overall survival (OS), 6-month and 1-year survival, and safety. Exploratory endpoints included change from baseline in CA27.29, UGT1A1 and ABCC2 polymorphism for correlation with select toxicities.
The analysis dataset utilized consisted of 45 patients having at least two CA27.29 measurements (pre- and post-first dose).
Levels of CA27.29 were also evaluated for correlation with tumor size over the course of treatment.

## Pentaerythritolyl-4-Arm-(PEG-1-Methylene-2 Oxo-Vinylamino Acetate linked-Irinotecan)-20K [4-arm-PEG-gly-irino-20K]
[1]; 145 mg/m^2 iv, administered every 14 days or every 21 days
  objective response rate (ORR): 28.6%
[1]; Total (both schedules)
  Overall Survival (OS): 10.3 months
  Progression Free Survival (PFS): 4.6 months
[1]; Total (both schedules), N = 66
  Overall Response Rate (ORR): 29% (N = 66)
[1]; q21d schedule
  Overall Survival (OS): 13.1 months
  Progression Free Survival (PFS): 5.3 months
Serum CA27.29; 145 mg/m^2, both q14d and q21d regimens, FIGS. 1A and 1B
  decrease in serum CA27.29 levels over time: at least twenty five
Serum CA27.29; RECIST PD, FIG. 5
  median change in CA27.29: increased
Serum CA27.29; RECIST PR and CR, FIG. 5
  median of the maximum CA27.29 decline: > 50%
Serum CA27.29; RECIST SD < 6 months, FIG. 5
  median decline in CA27.29: negligible
Serum CA27.29; RECIST SD >= 6 months, FIG. 5
  median of the maximum decline in CA27.29: 30%
Serum CA27.29; Total, 16/45 patients
  Overall best CA27.29 response (50% or better decline in at least one observation from baseline): 36% (16/45)
Serum CA27.29; patients with <25% reduction (n=4) or elevations (n=13) in CA27.29 by week 6
  median PFS: 6 months
Serum CA27.29; patients with >=25% reduction in CA27.29 by week 6 (n=12)
  median PFS: 12 months
Serum CA27.29; patients with RECIST PD (8/10)
  patients showing CA27.29 elevation from baseline: Eighty
Serum CA27.29; patients with RECIST SD >= 6 months (n=5)
  patients manifesting declines in CA27.29: All patients
Serum CA27.29; patients with SD < 6 months (6/11)
  patients showing a decline in CA27.29: 55%

From patent US10132810B2, “Method for assessing and predicting efficacy of breast cancer treatment with a long-acting topoisomerase I inhibitor” (priority 2012, dated 2018)
